Data on 1 compound can be found in patent EP1637537A1, “New medicaments” (Riemser Arzneimittel AG, priority 2004, dated 2006).

The nature of data set [1]: Serum/plasma concentration-time profile after oral dosing in volunteers. It counts as in vivo, männliche und weiblichen Probanden. How it is done: Die Studie wurde an 12 männliche und weiblichen Probanden im Alter zwischen 18 und 45 Jahren durchgeführt. Der Wirkstoff (Methantheliniumbromid) wurden oral als Filmtablette oder als Lösung appliziert. Zu unterschiedlichen Zeiten nach der Dosierung wurden Messungen vorgenommen und Laborwerte zur Charakterisierung der Wirkung festgestellt.
Im Beispiel wurden 100 mg Wirkstoff als Filmtablette der folgenden Formulierung eingesetzt: • ◆ 50,0 mg Methantheliniumbromid • ◆ 30,0 mg Maisstärke • ◆ 18,75 mg Polyvinylprrolidon • ◆ 4,0 mg hochdisperses Siliziumdioxid • ◆ 146,25 mg Lactosemonohydrat • ◆ 1,0 mg Magnesiumsterarat • ◆ 1,0 mg Hydroxypropylmethylcellulose • ◆ 39,38 mg Talcum • ◆ 6,5 mg Gummi arabicum • ◆ 15,53 mg Calciumcarbonat • ◆ 7,73 mg Titandioxid • ◆ 6,58 mg Weißer Ton • ◆ 0,65 mg Macogol 6000 • ◆ 61,63 mg Saccharose • ◆ 1,0 mg E 100 • ◆ 0,1 mg Carnauba Wachs
Es ist auch möglich, eine reine Lösung von 100 mg Methantheliniumbromid in Wasser als Frischlösung herzustellen. Dabei empfiehlt es sich, den bitteren Geschmack des Wirkstoffes durch angenehme Geschmackskorrigentien zu überdecken. Hier bieten sich z. B. einige Spritzer eines Mundwassers mit Pfefferminzgeschmack an.
Ausdruck dafür ist das in der Figur 1 dargestellte Konzentrations-Zeit-Profil. Zu beachten ist eine deutliche individuelle Schwankungsbreite in der Serumkonzentration nach Zuführung beider Applikationsformen. […]

The test system of a further data set is Würgereiz. Description: Gag reflex inhibition after gag stimulus, clinical study. In kind it is in vivo, männlichen und weiblichen gesunden Probanden. The conditions noted are these: oral 100 mg as Vagantin® film tablet or fresh solution; tested immediately after application and 1, 2 and 6 hours later (Figur 2). How it is done: (§1) In einer klinischen Studie an 10 männlichen und weiblichen gesunden Probanden im Alter zwischen 20 und 60 Jahren wurde die Ausschaltung bzw. Verzögerung des Würgereizes und der Verminderung des Speichelflusses bei ärztlichen oder zahnärztlichen Manipulationen im Rachenraum geprüft.
(§2) Die obengenannte Filmtablettenformulierung bzw. die dort genannte Lösung von 100 mg Methantheliniumbromid in Wasser als Frischlösung wurde auch hier verwendet.
(§3) Nach Würgereizstimulus wurde die Würgereflexhemmung unmittelbar nach Applikation, sowie im Abstand von 1, 2 und 6 Stunden danach geprüft. Gleichzeitig wurde die Speichelflußrate vor und nach Einnahme von Methantheliniumbromid in Form von Vagantin® gemessen. […] Die Ergebnisse sind in den Figuren. 2 und 3 dargestellt.

A further data set has as its system Speichelfluß. Put plainly: Saliva flow rate before and after intake, clinical study. In kind it is in vivo, männlichen und weiblichen gesunden Probanden. Particulars: oral 100 mg as Vagantin®; before and after intake (Figur 3). How it is done:
as §1, §2, §3
Figur 3 zeigt die Speichelsekretion in Abhängigkeit von der Methanthelinkonzentration im Plasma nach oraler Gabe von 100 mg Wirkstoff an gesunde Freiwillige. Ferner kann von einem Methanthelinbromidgehalt im Plasma von etwa 5 ng/ml über einen Zweitraum von 8 Stunden ausgegangen werden (Figur 1).

For `CC[N+](C)(CC)CCOC(=O)C1c2ccccc2Oc2ccccc21.[Br-]` [Methantheliniumbromid, N,N-Diethyl-N-methyl-2-(xanthenylcarbonyloxy)ethylammoniumbromid], in data set [1] (human, plasma, oral, 100 mg, over a period of 8 hours (Figur 1), read-out: Methanthelinbromidgehalt im Plasma), the concentration at 8 h was roughly 5 ng/mL. Further, the “Reaktion (Konzentrations-Zeit-Profil, Serumkonzentration)” value in data set [1] (oral drinking solution compared with film tablet, 100 mg (Figur 1)) is “etwas stärkere Reaktion als die Filmtablette”. For the same compound, the Würgereflexhemmung entry with Würgereiz is on record as “deutliche Verzögerung des Würgereizesreflexes”. In addition, the Speichelflußrate entry in the data set on Speichelfluß was “deutliche Reduzierung des Speichelflusses”.
